From US20230220047A1, “PEPTIDES FOR TREATMENT OF SEPSIS AND CANCER” (NORWEGIAN UNIVERSITY OF SCIENCE AND TECHNOLOGY (NTNU), priority 2020, published 2023) come the findings set out here.

For series [1], the system named is ANBL-6 multiple myeloma cells. Put plainly: CellTiter-Glo cell viability assay, ANBL-6. Type of series: cell-based. The settings on record: for anti-proliferative activity over a concentration series: 5, 10, 12.5, 15, 20 and 30 μM or 5, 10 and 20 μM. Here is the method:
Minor effects on the proliferation of the IH-1 and RPMI 8226 cell lines are seen. Cells were seeded at the level shown (left-hand bar of each set) then incubated in medium containing water, 10 μM penetratin or 10 μM P7-A4-Pen for 48 hr (except for INA-6 cells, which were incubated with 12.5 μM penetratin or 12.5 μM P7-A4-Pen). The number of viable cells was detected based on quantitation of ATP by luminescent signal in correlation to a standard curve prepared for each cell line. Results are based on 3-5 biological replicates for each condition, error bars show standard deviation of mean.
Cells were seeded and then incubated in growth medium alone or supplemented with water, DMSO, 15 μM penetratin or 15 μM investigational peptide. The growth medium only and H2O—, DMSO- and penetratin-supplemented cultures constituted controls.
The solid horizontal lines show the amount of cells originally seeded. In (A) ANBL-6 cells were seeded at a level of 10,000 cells/well, then incubated in medium supplemented with water, the control peptide C3A-Pen, P7-Pen, P7-A4-Pen, P7-N4-Pen or P7-K2-Pen for 48 hours. The peptides were included at concentrations of 5, 10, 12.5, 15, 20 or 30 μM. Cells were counted at 48 hours. In (B), ANBL-6 cells were seeded at a level of 5000 cells/well, then incubated in medium supplemented with water, P6-Pen, P-P6-Pen, P7-D4-Pen or P7-A4-Pen for 48 hours. Peptides were included at concentrations of 5, 10 or 20 μM. Cells were counted at 48 hours. […] Results are based on 3 biological replicates, error bars show standard deviation of mean.
Multiple myeloma cells JJN-3 (DSMZ (Germany) no. ACC 541), ANBL-6 (Cellosaurus accession number CVCL_5425, obtained from Dr Diane Jelinek, Mayo Clinic, Rochester, Minn.), INA-6 (Cellosaurus accession number CVCL_5209, obtained from Dr M. Gramatzki, University of Erlangen-Nurnberg, Erlangen, Germany), RPMI-8226 (ATCC CCL-155), and IH-1 (Cellosaurus accession number CVCL_WZ44, established from the pleural effusion of a myeloma patient by Myeloma research group, IKOM, NTNU, Trondheim, Norway) were grown in RPMI-1640 (Sigma-Aldrich Norway, Oslo, Norway) supplemented with 100 nM penicillin/streptomycin and 10% FCS, and for ANBL-6, IH-1 and INA-6 cells 2 ng/ml recombinant IL-6 (Gibco, Thermo Fisher Scientific, Waltham, Mass., USA). Murine multiple myeloma Vk*MYC cells were obtained from M.D. Leif Bergsagel (Mayo Clinic, Richester, Minn., USA) and cultured in RPMI-1640 supplemented with 2% human serum (B^+, The blood bank, St Olav's Hospital, Trondheim, Norway), 100 nM penicillin/streptomycin, L-Glutamine (2 mM) and recombinant IL-6 (1 ng/ml). HEK293T (ATCC CRL-3216) were cultured in DMEM with 10% FCS. THP-1 TRAM knockout (KO) and TLR4 KO cell lines, and matching lentivirally transduced control cell lines, were differentiated in the same way as wild type (WT) THP-1. TRAM KO THP-1 cell line is described in Yurchenko et al. (supra).
To evaluate the potential impact of the P7 peptide on proliferation of tumour cells of lymphoid origin, we performed a CellTiter-Glo Luminescent Cell Viability Assay to address proliferation of several multiple myeloma (MM) cell lines. For the assay, cells were incubated for 48 h in respective media containing either solvent (water), 10 μM control peptide (Pen) or the SLAMF1-derived peptide P7-A4-Pen for 48 h (FIG. 32) (with the exception of the INA-6 cells which were incubated with 12.5 μM control peptide or P7-A4-Pen). […] This effect could be mediated by P7-A4-Pen-induced inhibition of signalling pathways that are crucial for driving proliferation and/or survival of MM tumour cells.
(In ATP-based viability assays light output follows the ATP content of the culture.)

Series [2] has as its system TLR4. Put plainly: qPCR of TLR4-mediated cytokine expression in B6 immortalised murine macrophages. In kind it is cell-based, mouse. Particulars: 10 μM, 1 h pre-treatment, LPS 100 ng/ml. Here is the method:
Cells were pre-treated with 10 μM peptides in cell culture media for 1 h, and stimulated with LPS (100 ng/ml) for increasing lengths of time.
Immortalized bone-derived-macrophages (iBMDM) from wild type, Tram−/− or TIr4−/− C57BL/6 mice were maintained at 37° C. and 5% CO2 in DMEM supplemented with 10% FCS.
Total RNA was isolated from the cells using Qiazol reagent #79306 from QIAGEN, and chloroform extraction followed by purification on RNeasy Mini columns with DNAse digestion (Qiagen). cDNA was prepared using the Maxima First Strand cDNA Synthesis Kit for quantitative real-time polymerase chain reaction (RT-qPCR) (Thermo Fisher Scientific) according to the manufacturer's protocol. qPCR was performed using the PerfeCTa qPCR FastMix (Quanta Biosciences) in replicates and cycled in a StepOnePlus™ Real-Time PCR cycler. The following TaqMan® Gene Expression Assays (Applied Biosystems®) were used: IFNβ (Hs01077958_s1), TNF (Hs00174128_m1), TBP (Hs00427620_m1), CXCL10 (Hs01124251_g1), IL-6 (Hs00174131_m1) and IL-1β (Hs01555410_m1), for human cells; Ifnβ (Mm00439552_s1), Tnf (Mm00443258_m1), Tbp (Mm01277042_m1) and II-1β (Mm00434228_m1), for mouse cells. No RT controls were negative. The level of TBP mRNA was used for normalisation and results presented as relative expression compared to the control untreated sample. Relative expression was calculated using Pfaffl's mathematical model (Pfaffl, Nucleic Acids Research 29(9): e45, 2001). Results are presented as the mean and SD expression fold change for biological replicates relative to non-stimulated cells. Statistical significance was evaluated in GraphPad Prizm 5.03. Data distribution was assumed to be normal but this was not formally tested. The difference between the two groups was determined by two-tailed t test.
We proceeded with cellular assays to address the effect of peptide pre-treatment on TLR4-mediated cytokine expression in B6 immortalised murine macrophages (FIG. 13). Tested peptides had no cytotoxic effect on B6 murine macrophages (FIG. 13A).

Consider “Ac-ITVAASVTLTGRQIKIWFQNRRMKWKK-NH2 [Peptide P7-A4-Pen]”, for which the “effect on proliferation of ANBL-6 cells” value in series [1] (15 μM) is reported as “anti-proliferative effect”. Also, in series [1] (48 h), the “anti-proliferative activity over a concentration series” value was “clear concentration-dependent effect”. The cell proliferation result in series [1] (ANBL-6, 10 μM, 48 h) is “strongly inhibited cell proliferation”. In series [1] (higher concentrations, 48 h), the “cytotoxic activity (cell numbers below number seeded)” value is given as “cytotoxic activity”. Further, the “TLR4-mediated Ifnβ, Tnf and Il-1β mRNA expression” value in series [2] is on record as “strongly inhibited”.
Regarding “Ac-ITVYASVTLTGRQIKIWFQNRRMKWKK-NH2 [Peptide P7-Pen]”, the “anti-proliferative activity over a concentration series” value in series [1] (48 h) is on record as “essentially no anti-proliferative effect”. Moreover, the “TLR4-mediated Ifnβ, Tnf and Il-1β mRNA expression” value in series [2] is given as “strongly inhibited”.
